Results published in article PMC8451667 (Emerging Microbes & Infections, 2021).
Where two headings read alike, the source gives them in different places.

Experiments:
[1] = test system: MDCK cells; conditions: cited from earlier work
[2] = test system: A/California/04/2009 (H1N1) virus; assay: microbe, parasite or virus in culture; format: cell-based, Influenza A virus; conditions: for EC50: Influenza A virus
[3] = test system: Ca/04 (H1N1) virus; design: species or system mice; conditions: mouse, in vivo
[4] = mouse, in vivo
[5] = test system: several contemporary influenza A viruses; assay: microbe, parasite or virus in culture; format: cell-based; conditions: read-out: EC50 values against all IAVs tested
[6] = in vivo; conditions: male, BALB/c, mouse, ip, 50 mg/kg
[7] = in vitro; conditions: dog

SMILES	CC50 [1] [nM]	EC50 ([2]; H1N1, read-out: EC50 alone Oseltamivir (nM)) [nM]	Clinical signs: activity [3]	Clinical signs: physical appearance [3]	Influenza virus nucleoprotein in lungs by immunostaining [3]	Loss of initial body weight [3] [%]	Survival [3] [%]	Virus titers in lung and NT by TCID50 vs Ca/04-vehicle group [3]	Histopathology of brain, livers, kidneys, lungs and hearts [4]	EC50 [5] [nM]	Combination effect with oseltamivir in cell culture [2]	EC50 ([2]; H1N1, read-out: EC50 alone UAWJ280 (μM)) [nM]	Section with pneumocyte type 2 hyperplasia and hypertrophy, alveolar oedema and inflammation [3]	AUC(0-inf) [6] [µM·h]	CL/F [6] [mL/min/kg]	Cmax [6] [µM]	Tmax [6] [h]	Vd/F [6] [L/kg]	half-life [6] [h]	CC50 [7] [nM]
CCC(CC)O[C@@H]1C=C(C(=O)O)C[C@H](N)[C@H]1NC(C)=O [Oseltamivir carboxylate]	> 20000																			
CCOC(=O)C1=C[C@@H](OC(CC)CC)[C@H](NC(C)=O)[C@@H](N)C1 [Oseltamivir, Oseltamivir phosphate, reference compound]		1.77 ± 0.11	remained alert	mild clinical signs	mild-moderate amounts of viral antigens	~15	85	trend towards reduced virus load	no signs of toxicity											
OC12CC3CC(C1)CC(NCc1ccc(I)s1)(C3)C2 [UAWJ106]	> 100000																			
[2H]C(NC12CC3CC(CC(O)(C3)C1)C2)c1ccc(I)s1 (stereo not shown) [UAWJ280, 3-{[(5-iodothiophen-2-yl)(D)methyl]amino}adamantan-1-ol]			minor changes in activity	mild clinical signs	moderate amounts of virus nucleoprotein	~15	90	trend towards reduced virus load	no signs of toxicity	200 to 600	strong synergistic antiviral effect	300 ± 18	up to 80%	11.5	187	5.61	0.42	38 ± 4.4	2.34	> 100000
